Test results: US9133207B2, “Tetrandrine derivatives with substituted 5-carbon, preparation method and use thereof” (Hangzhou Bensheng Pharmaceutical Co., Ltd., priority 2011, dated 2015)
In brackets after ≈: the same amount, converted by molar mass.

Assays:
[1] = test system: RPMI8226 (multiple myeloma); experiment: Multiple myeloma cell growth inhibition, MTT, 72 h (Example 6); type: cell-based, human; conditions: Homo sapiens, RPMI-8226; 72 h, MTT, RPMI8226
Method in brief: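 Viability was read by MTT after 72 h of compound exposure at 37 °C, 5% CO2. Each well held 6000 RPMI8226 cells in 1640 medium containing 10% fetal bovine serum, with derivatives added at various concentrations.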

[2] = Experiment 8-2: body weight of nude mice, preliminary toxicity
Experimental: (§7) Animal: BALB/c nude mice, 8 weeks, female, purchased from Shanghai Laboratory Animal Center of Chinese Academy of Sciences, China.
(§8) The mice are administered from the third day after the inoculation. Each mouse is intragastrically administered in 0.4 ml each time and 3 times a day, at 8:00, 14:00 and 20:00, with 6-hour intervals. The administrations are successive for 10 days. The day before administration is deemed as Day 0 and the body weight and tumor size are determined every 5 days to produce a dynamic plot on body weight and tumor growth. On Day 29, the mice are dissected and the tumors are taken out and weighted. The tumor inhibition rate (%) is calculated after the effect of the medicament based on the tumor inhibition rate of the control group being zero.
(§9) The values determined are presented as mean±standard error (M±SD).

[3] = test system: human non-small cell lung cancer cell line A549 transplanted tumor; experiment: Experiment 8-2: transplanted tumor of human lung cancer in nude mice; type: in vivo, BALB/c nude mice
From the text: (§1) Cell lines: human non-small cell lung cancer cell line A549, from China Center for Type Culture Collection (CCTCC);
(§2) The administrations are successive for 10 days.

[4] = test system: PANC-1 (pancreatic cancer); experiment: Solid tumor cell growth inhibition, MTT, 72 h (Example 7); type: cell-based, human; conditions: for IC50 / IC90: Homo sapiens, 72 h, MTT, PANC-1
Method in brief: (§3)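 Each line is plated at 4000 cells per well in high-glucose DMEM supplemented with 10% FBS. After 24 h settling, derivatives at several concentrations are mixed in and cultured 72 h; MTT then gives viable cells, with untreated wells set to 100%.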

[5] = test system: CaES-17 (esophageal cancer cell); experiment: as above; type: cell-based, human; conditions: Homo sapiens, CaEs17; 72 h, MTT, CAES-17
Method in brief: as §3

[6] = test system: Hep-2 (laryngeal carcinoma); experiment: as above; type: cell-based, human; conditions: Homo sapiens; 72 h, MTT, Hep 2
Method in brief: as §3

MG63 (osteosarcoma) = experiment: as above; type: cell-based, human; conditions: Homo sapiens; 72 h, MTT, MG-63
Method in brief: as §3

PC-3 (prostate cancer) = experiment: as above; type: cell-based, human; conditions: Homo sapiens; 72 h, MTT, PC-3
Method in brief: as §3

[7] = mouse, in vivo, 50 mg/kg
Experimental: as §7, §8, §9

[8] = test system: Kasumi-1 (acute myeloid leukemia M2 type, AML-M2); experiment: Leukemia cell growth inhibition, MTT, 72 h (Example 5); type: cell-based, human; conditions: Homo sapiens, Kasumi 1
Method in brief: (§4)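 Viability read by MTT after 72 h of compound treatment at 37 °C under 5% CO2; each well seeded with 6000 cells in 1640 medium plus 10% fetal bovine serum, compounds at several concentrations.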

[9] = test system: K562/adr (drug-resistant, chronic myeloid leukemia, CML); experiment: as above; type: cell-based, human; conditions: Homo sapiens, K562/Adr; 72 h, MTT
Method in brief: as §4

[10] = test system: H9 (acute lymphoblastic leukemia, ALL); experiment: as above; type: cell-based, human; conditions: Homo sapiens; 72 h, MTT
Method in brief: as §4

[11] = test system: NB4 (acute promyelocytic leukemia, AML); experiment: as above; type: cell-based, human; conditions: Homo sapiens; 72 h, MTT
Method in brief: as §4

[12] = test system: Jurkat (acute lymphoblastic leukemia, ALL); experiment: as above; type: cell-based, human; conditions: for IC50 / IC90: Homo sapiens, Jurkat, 72 h, MTT
Method in brief: as §4

A549 (human lung cancer) = experiment: Solid tumor cell growth inhibition, MTT, 72 h (Example 7); type: cell-based; conditions: Homo sapiens; 72 h, MTT, A549
Method in brief: as §3

[13] = test system: MGC 803 (human gastric cancer cell); experiment: as above; type: cell-based; conditions: Homo sapiens
Method in brief: as §3

[14] = test system: RKO (human colon adenocarcinoma cell); experiment: as above; type: cell-based; conditions: Homo sapiens; 72 h, MTT, RKO
Method in brief: as §3

[15] = test system: U87 MG (malignant glioma cell); experiment: as above; type: cell-based; conditions: Homo sapiens, U-87 MG
Method in brief: as §3

[16] = test system: Huh7 (human liver cancer cell); experiment: as above; type: cell-based; conditions: for IC50 / IC90: Homo sapiens, 72 h, MTT, Huh-7
Method in brief: as §3

[17] = test system: Becap37 (human breast cancer cell); experiment: as above; type: cell-based; conditions: for IC50 / IC90: Homo sapiens, 72 h, MTT, Becap-37
Method in brief: as §3

[18] = test system: CNE (nasopharyngeal carcinoma cell); experiment: as above; type: cell-based; conditions: Homo sapiens
Method in brief: as §3

[19] = test system: SK-OV-3 (ovarian cancer cell); experiment: as above; type: cell-based; conditions: Homo sapiens
Method in brief: as §3

[20] = test system: Hela (human cervical cancer cell); experiment: as above; type: cell-based; conditions: Homo sapiens; 72 h, MTT, Hela
Method in brief: as §3

[21] = test system: human breast cancer multidrug resistant lines MCF-7/ADR; conditions: 2.5 μmol/L tetrandrine; cited from earlier work
[22] = test system: human non-small cell lung cancer cell line A549 transplanted tumor; experiment: Experiment 8-1: transplanted tumor of human lung cancer in nude mice; type: in vivo, BALB/c nude mice; conditions: 50 mg/kg intragastric, 3 times a day, 10 days
Experimental: as §1
(§5) BS-TE-403 and BS-TE-333 (the present invention), and tetrandrine TTD from Jiangxi Jinfurong Pharmaceutical Co., Ltd. All compounds are administered at the dosage of 50 mg/kg weight each time.
Under sterile conditions, the above tumor cells in the logarithmic growth phase are collected and injected by subcutaneous injection in an amount of 5×10^6/0.2 ml/nude mice (cell viability>95%) into the right subaxillary of the nude mice, thus establishing a transplated tumor model of human non-small cell lung cancer in nude mice.
(§6) The experiments are divided into 4 groups: negative control group (solvent group), positive control group (lead compound TTD group), BS-TE-403 group and BS-TE-333 group.
as §2

[23] = Experiment 8-1: body weight of nude mice, preliminary toxicity; type: in vivo, BALB/c nude mice; conditions: M±SD
Experimental: as §5, §6, §2

Compound: COc1ccc2cc1Oc1ccc(cc1)C[C@H]1c3cc(c(OC)cc3CCN1C)Oc1c(OC)c(OC)c(CN3CCC(N(C)C)CC3)c3c1[C@H](C2)N(C)CC3 [BS-TE-354]
- IC50 [1]: 0.08 µg/mL (≈ 0.105 µM)
- IC90 [1]: 1.58 µg/mL (≈ 2.07 µM)
- weight loss as compared with the weight in the control group (FIG. 6) ([2]; 50 mg/kg): relatively remarkable
- Weight (g) Final ([2]; 50 mg/kg intragastric, 3 times a day, 10 days, final body weight, M±SD): 16.08 ± 1.00 g
- Weight (g) Initial ([2]; nude mice body weight before administration, M±SD): 22.25 ± 0.29 g
- effect on transplanted tumor of human lung cancer in nude mice ([3]; 50 mg/kg): exhibits inhibiting effect
- Mass of tumor ([3]; 50 mg/kg intragastric, 3 times a day, 10 days, Day 29, M±SD): 423.25 ± 364.28 mg
- Tumor Inhibition rate (%) ([3]; 50 mg/kg intragastric, 3 times a day, 10 days, Day 29, control = zero): 43.60%
- IC50 [4]: 1.25 µg/mL (≈ 1.64 µM)
- IC90 [4]: 6.31 µg/mL (≈ 8.27 µM)
- anti-PANC-1 activity increase over tetrandrine ([4]; compared with tetrandrine): 2 fold
- IC50 [5]: 0.91 µg/mL (≈ 1.19 µM)
- IC90 [5]: 4.89 µg/mL (≈ 6.41 µM)
- IC50 [6]: 2.05 µg/mL (≈ 2.69 µM)
- IC90 [6]: 6.19 µg/mL (≈ 8.11 µM)
- IC50 (MG63 (osteosarcoma)): 0.68 µg/mL (≈ 0.891 µM)
- IC90 (MG63 (osteosarcoma)): 0.9 µg/mL (≈ 1.18 µM)
- IC50 (PC-3 (prostate cancer)): 1.9 µg/mL (≈ 2.49 µM)
- IC90 (PC-3 (prostate cancer)): 2.5 µg/mL (≈ 3.28 µM)
- toxic and side effect under such a dosage [7]: has caused some toxic and side effect
- IC50 [8]: 0.37 µg/mL (≈ 0.485 µM)
- IC90 [8]: 1.97 µg/mL (≈ 2.58 µM)
- IC50 [9]: 0.99 µg/mL (≈ 1.3 µM)
- IC90 [9]: 2.65 µg/mL (≈ 3.47 µM)
- IC50 [10]: 0.78 µg/mL (≈ 1.02 µM)
- IC90 [10]: 1.25 µg/mL (≈ 1.64 µM)
- IC50 [11]: 0.4 µg/mL (≈ 0.524 µM)
- IC90 [11]: 1 µg/mL (≈ 1.31 µM)
- IC50 [12]: 0.5 µg/mL (≈ 0.655 µM)
- IC90 [12]: 2.23 µg/mL (≈ 2.92 µM)
- anti-Jurkat activity increase over tetrandrine ([12]; compared with tetrandrine): ~4 fold
- IC50 (A549 (human lung cancer)): 1.8 µg/mL (≈ 2.36 µM)
- IC90 (A549 (human lung cancer)): 9.8 µg/mL (≈ 12.8 µM)
- IC50 [13]: 0.83 µg/mL (≈ 1.09 µM)
- IC90 [13]: 3.93 µg/mL (≈ 5.15 µM)
- IC50 [14]: 0.25 µg/mL (≈ 0.328 µM)
- IC90 [14]: 0.51 µg/mL (≈ 0.668 µM)
- IC50 [15]: 0.31 µg/mL (≈ 0.406 µM)
- IC90 [15]: 1.44 µg/mL (≈ 1.89 µM)
- IC50 [16]: 0.65 µg/mL (≈ 0.852 µM)
- IC90 [16]: 0.98 µg/mL (≈ 1.28 µM)
- anti-Huh7 activity increase over tetrandrine ([16]; compared with tetrandrine): ~8 fold
- IC50 [17]: 0.4 µg/mL (≈ 0.524 µM)
- IC90 [17]: 2.4 µg/mL (≈ 3.15 µM)
- anti-Becap37 activity increase over tetrandrine ([17]; compared with tetrandrine): 17 fold
- IC50 [18]: 0.54 µg/mL (≈ 0.708 µM)
- IC90 [18]: 1.62 µg/mL (≈ 2.12 µM)
- IC50 [19]: 1.4 µg/mL (≈ 1.83 µM)
- IC90 [19]: > 16 µg/mL
- IC50 [20]: 1.07 µg/mL (≈ 1.4 µM)
- IC90 [20]: 2.81 µg/mL (≈ 3.68 µM)

Compound: COc1ccc2cc1Oc1ccc(cc1)C[C@H]1c3cc(c(OC)cc3CCN1C)Oc1c(OC)c(OC)cc3c1[C@H](C2)N(C)CC3 [TTD, 6,6′,7,12-tetramethoxy-2,2′dimethylberbamine, reference compound]
- increase of adriamycin cytotoxicity on drug-resistant tumors [21]: 20.4 times
- IC50 [1]: 0.37 µg/mL (≈ 0.594 µM)
- IC90 [1]: 2.54 µg/mL (≈ 4.08 µM)
- Mass of tumor ([22]; Day 27, M±SD): 799.00 ± 349.09 mg
- Tumor Inhibition rate (%) ([22]; Day 27, control = zero): 13.95%
- IC50 [4]: 3.16 µg/mL (≈ 5.07 µM)
- IC90 [4]: 7.02 µg/mL (≈ 11.3 µM)
- IC50 [5]: 8.34 µg/mL (≈ 13.4 µM)
- IC90 [5]: > 16 µg/mL
- IC50 [6]: 3.88 µg/mL (≈ 6.23 µM)
- IC90 [6]: 11.9 µg/mL (≈ 19 µM)
- IC50 (MG63 (osteosarcoma)): 1.9 µg/mL (≈ 3.05 µM)
- IC90 (MG63 (osteosarcoma)): 3.7 µg/mL (≈ 5.94 µM)
- IC50 (PC-3 (prostate cancer)): 6.01 µg/mL (≈ 9.65 µM)
- IC90 (PC-3 (prostate cancer)): 10.8 µg/mL (≈ 17.3 µM)
- Weight (g) Final ([23]; 50 mg/kg intragastric, 3 times a day, 10 days, final body weight): 19.10 ± 2.02 g
- Weight (g) Initial ([23]; nude mice body weight before administration): 22.40 ± 0.26 g
- IC50 [8]: 1.69 µg/mL (≈ 2.71 µM)
- IC90 [8]: 8.24 µg/mL (≈ 13.2 µM)
- IC50 [9]: 0.44 µg/mL (≈ 0.707 µM)
- IC90 [9]: 2.14 µg/mL (≈ 3.44 µM)
- IC50 [10]: 2.69 µg/mL (≈ 4.32 µM)
- IC90 [10]: 6.4 µg/mL (≈ 10.3 µM)
- IC50 [11]: 1.6 µg/mL (≈ 2.57 µM)
- IC90 [11]: 4.1 µg/mL (≈ 6.58 µM)
- IC50 [12]: 2.09 µg/mL (≈ 3.36 µM)
- IC90 [12]: 9.85 µg/mL (≈ 15.8 µM)
- IC50 (A549 (human lung cancer)): 2.9 µg/mL (≈ 4.66 µM)
- IC90 (A549 (human lung cancer)): 12.5 µg/mL (≈ 20.1 µM)
- IC50 [13]: 1.97 µg/mL (≈ 3.16 µM)
- IC90 [13]: 7.41 µg/mL (≈ 11.9 µM)
- IC50 [14]: 2.72 µg/mL (≈ 4.37 µM)
- IC90 [14]: 6.3 µg/mL (≈ 10.1 µM)
- IC50 [15]: 0.66 µg/mL (≈ 1.06 µM)
- IC90 [15]: 3.58 µg/mL (≈ 5.75 µM)
- IC50 [16]: 5.05 µg/mL (≈ 8.11 µM)
- IC90 [16]: 7.81 µg/mL (≈ 12.5 µM)
- IC50 [17]: 6.9 µg/mL (≈ 11.1 µM)
- IC90 [17]: 15 µg/mL (≈ 24.1 µM)
- IC50 [18]: 3.3 µg/mL (≈ 5.3 µM)
- IC90 [18]: 6.2 µg/mL (≈ 9.96 µM)
- IC50 [19]: 9.04 µg/mL (≈ 14.5 µM)
- IC90 [19]: > 16 µg/mL
- IC50 [20]: 4.05 µg/mL (≈ 6.5 µM)
- IC90 [20]: 9.24 µg/mL (≈ 14.8 µM)
